Where two headings read alike, the source gives them in different places.
Tests used:
[1] = tested on: morningglory; assay: Test B pre-/postemergence herbicide test; assay type: in vivo, Ipomoea coccinea; conditions: for pest or weed control at 500 g/ha: 500 g ai/ha
Summary of the method: (§1)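 Formulation: non-phytotoxic solvent mix with surfactant. Timing: preemergence on seed and postemergence on 2–18 cm plants, applied concurrently. Readout after 13–15 d greenhouse: visual 0–100 control rating against controls.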

[2] = tested on: velvetleaf; assay: Test B pre-/postemergence herbicide test; assay type: in vivo, Abutilon theophrasti
Summary of the method: (§2)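 Visual rating, 0 (no effect) to 100 (complete control), versus untreated controls after 13–15 d in greenhouse. Pre- and postemergence applications (postemergence plants 2–18 cm, 1–4 leaves); flooded paddy arm at 2-leaf stage. Compounds in non-phytotoxic solvent plus surfactant.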

[3] = tested on: barnyardgrass; assay: Test B flooded paddy test; assay type: in vivo, Echinochloa crus-galli; conditions: Echinochloa crus-galli, 336 h, 1000 g ai/ha, scale 0 to 100 (0 no effect, 100 complete control), read-out: Barnyardgrass plant response rating
Summary of the method: (§3)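 Scale 0–100: zero equals no visible effect, 100 complete control, judged by eye relative to controls. Timing: 13 to 15 days in greenhouse post-treatment. Growth stage at spraying: two leaves (paddy) or one to four leaves, 2–18 cm (postemergence).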

[4] = tested on: lambsquarters; assay: Test B pre-/postemergence herbicide test; assay type: in vivo, Chenopodium album; conditions: for pest or weed control at 500 g/ha: 500 g ai/ha
Summary of the method: as §2

[5] = tested on: ducksalad; assay: Test B flooded paddy test; assay type: in vivo, Heteranthera limosa; conditions: Heteranthera limosa, 336 h, 1000 g ai/ha, scale 0 to 100 (0 no effect, 100 complete control), read-out: Ducksalad plant response rating
Summary of the method: as §3

[6] = tested on: giant foxtail; assay: Test B pre-/postemergence herbicide test; assay type: in vivo, Setaria faberi; conditions: for pest or weed control at 500 g/ha: 500 g ai/ha
Summary of the method: as §2

[7] = tested on: cocklebur; assay: Test B pre-/postemergence herbicide test; assay type: in vivo, Xanthium strumarium; conditions: for pest or weed control at 500 g/ha: 500 g ai/ha
Summary of the method: as §1

[8] = tested on: barnyardgrass; assay: Test B pre-/postemergence herbicide test; assay type: in vivo, Echinochloa crus-galli; conditions: for pest or weed control at 500 g/ha: 500 g ai/ha
Summary of the method: as §1

[9] = tested on: wild oat; assay: Test B postemergence herbicide test; assay type: in vivo, Avena fatua; conditions: Avena fatua, post-emergence, 336 h, read-out: Oat, Wild plant response rating
Summary of the method: (§4)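 Each value is a visual 0–100 response rating taken against controls 13 to 15 days after treatment in the greenhouse. Plants received formulated chemical postemergence at the 1- to 4-leaf stage or, in flooded paddy, at the 2-leaf stage.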

[10] = tested on: blackgrass; assay: Test B postemergence herbicide test; assay type: in vivo, Alopecurus myosuroides; conditions: Alopecurus myosuroides, post-emergence, 336 h, read-out: Blackgrass plant response rating
Summary of the method: as §3

[11] = tested on: corn; assay: Test B pre-/postemergence herbicide test; assay type: in vivo, Zea mays
Summary of the method: as §2

[12] = tested on: small flower umbrella sedge; assay: Test B flooded paddy test; assay type: in vivo, Cyperus difformis; conditions: Cyperus difformis, 336 h, 1000 g ai/ha, scale 0 to 100 (0 no effect, 100 complete control), read-out: Sedge, Umbrella plant response rating
Summary of the method: as §3

[13] = tested on: pigweed; assay: Test B pre-/postemergence herbicide test; assay type: in vivo, Amaranthus retroflexus; conditions: for pest or weed control at 500 g/ha: 500 g ai/ha
Summary of the method: as §2

[14] = tested on: wheat; assay: Test B postemergence herbicide test; assay type: in vivo, Triticum aestivum; conditions: Triticum aestivum, post-emergence, 336 h, read-out: Wheat plant response rating
Summary of the method: as §4

[15] = tested on: rice; assay: Test B flooded paddy test; assay type: in vivo, Oryza sativa; conditions: Oryza sativa, 336 h, 1000 g ai/ha, scale 0 to 100 (0 no effect, 100 complete control), read-out: Rice plant response rating
Summary of the method: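 Read-out: visual comparison with controls, scored 0 to 100, where 100 means complete control and 0 no effect. Formulated chemicals were applied postemergence to plants 2–18 cm tall (1- to 4-leaf), or to flooded-paddy plants at the 2-leaf stage, then held 13 to 15 days under glass.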

[16] = 125 g ai/ha, 0 is no effect, 100 is complete control, preemergence
[17] = 125 g ai/ha, visual rating, scale 0 (no effect) to 100 (complete control)
[18] = postemergence, 500 g ai/ha, scale 0 to 100, 0 is no effect, 100 is complete control

CCOC(=O)c1cccc(NC(=O)c2nn(C(C)(C)C)nc2CC)c1 [Compound 360, ethyl 3-[[[2-(1,1-dimethylethyl)-5-ethyl-2H-1,2,3-triazol-4-yl]carbonyl]amino]benzoate]
Plant response rating (0 to 100 scale), Morningglory [1, 16]: 0 | pest or weed control at 125 g/ha ([1]; Ipomoea, post-emergence, 336 h, 125 g ai/ha, visual rating, scale 0 (no effect) to 100 (complete control), read-out: Morningglory plant response rating): 0% | pest or weed control at 500 g/ha ([1]; Ipomoea, post-emergence, 336 h, postemergence, scale 0 to 100, 0 is no effect, 100 is complete control, read-out: Morningglory plant response rating): 10% | pest or weed control at 500 g/ha ([1]; Ipomoea, pre-emergence, 336 h, visual rating, 0 = no effect, 100 = complete control, read-out: Plant response rating, Morningglory): 10% | Plant response rating (0 to 100 scale), Velvetleaf [2, 16]: 20 | pest or weed control at 125 g/ha ([2]; Abutilon theophrasti, post-emergence, 336 h, 125 g ai/ha, visual rating, scale 0 (no effect) to 100 (complete control), read-out: Velvetleaf plant response rating): 40% | pest or weed control at 500 g/ha ([2]; Abutilon theophrasti, post-emergence, 336 h, postemergence, 500 g ai/ha, scale 0 to 100, 0 is no effect, 100 is complete control, read-out: Velvetleaf plant response rating): 50% | pest or weed control at 1000 g/ha [3]: 40% | Plant response rating (0 to 100 scale), Lambsquarters [4, 16]: 0 | pest or weed control at 125 g/ha ([4]; Chenopodium album, post-emergence, 336 h, 125 g ai/ha, visual rating, scale 0 (no effect) to 100 (complete control), read-out: Lambsquarters plant response rating): 0% | pest or weed control at 500 g/ha ([4]; Chenopodium album, post-emergence, 336 h, postemergence, scale 0 to 100, 0 is no effect, 100 is complete control, read-out: Lambsquarters plant response rating): 20% | pest or weed control at 500 g/ha ([4]; Chenopodium album, pre-emergence, 336 h, visual rating, 0 = no effect, 100 = complete control, read-out: Plant response rating, Lambsquarters): 40% | pest or weed control at 1000 g/ha [5]: 70% | Plant response rating (0 to 100 scale), Foxtail, Giant [6, 16]: 50 | pest or weed control at 125 g/ha ([6]; Setaria faberi, post-emergence, 336 h, 125 g ai/ha, visual rating, scale 0 (no effect) to 100 (complete control), read-out: Foxtail, Giant plant response rating): 30% | pest or weed control at 500 g/ha ([6]; Setaria faberi, post-emergence, 336 h, postemergence, scale 0 to 100, 0 is no effect, 100 is complete control, read-out: Foxtail, Giant plant response rating): 50% | pest or weed control at 500 g/ha ([6]; Setaria faberi, pre-emergence, 336 h, visual rating, 0 = no effect, 100 = complete control, read-out: Plant response rating, Foxtail, Giant): 90% | Plant response rating (0 to 100 scale), Cocklebur [7, 16]: 0 | pest or weed control at 125 g/ha ([7]; Xanthium strumarium, post-emergence, 125 g ai/ha, visual rating, scale 0 (no effect) to 100 (complete control), read-out: Cocklebur plant response rating): 10% | pest or weed control at 500 g/ha ([7]; Xanthium strumarium, post-emergence, postemergence, scale 0 to 100, 0 is no effect, 100 is complete control, read-out: Cocklebur plant response rating): 20% | pest or weed control at 500 g/ha ([7]; Xanthium strumarium, pre-emergence, visual rating, 0 = no effect, 100 = complete control, read-out: Plant response rating, Cocklebur): 0% | Plant response rating (0 to 100 scale), Barnyardgrass [8, 16]: 10 | pest or weed control at 125 g/ha ([8]; Echinochloa crus-galli, post-emergence, 125 g ai/ha, visual rating, scale 0 (no effect) to 100 (complete control), read-out: Barnyardgrass plant response rating): 0% | pest or weed control at 500 g/ha ([8]; Echinochloa crus-galli, post-emergence, postemergence, scale 0 to 100, 0 is no effect, 100 is complete control, read-out: Barnyardgrass plant response rating): 30% | pest or weed control at 500 g/ha ([8]; Echinochloa crus-galli, pre-emergence, visual rating, 0 = no effect, 100 = complete control, read-out: Plant response rating, Barnyardgrass): 40% | pest or weed control at 125 g/ha [9, 17]: 40% | pest or weed control at 500 g/ha [9, 18]: 60% | pest or weed control at 125 g/ha [10, 17]: 30% | pest or weed control at 500 g/ha [10, 18]: 50% | Plant response rating (0 to 100 scale), Corn [11, 16]: 10 | plant injury at 125 g/ha ([11]; Zea mays, post-emergence, 125 g ai/ha, visual rating, scale 0 (no effect) to 100 (complete control), read-out: Corn plant response rating): 10% | plant injury at 500 g/ha ([11]; Zea mays, post-emergence, postemergence, 500 g ai/ha, scale 0 to 100, 0 is no effect, 100 is complete control, read-out: Corn plant response rating): 20% | Corn plant response rating (crop injury, 0 = no effect, 100 = complete kill) at 500 g/ha ([11]; Zea mays, pre-emergence, 500 g ai/ha, visual rating, 0 = no effect, 100 = complete control): 40% | pest or weed control at 1000 g/ha [12]: 90% | Plant response rating (0 to 100 scale), Pigweed [13, 16]: 20 | pest or weed control at 125 g/ha ([13]; Amaranthus retroflexus, post-emergence, 336 h, 125 g ai/ha, visual rating, scale 0 (no effect) to 100 (complete control), read-out: Pigweed plant response rating): 30% | pest or weed control at 500 g/ha ([13]; Amaranthus retroflexus, post-emergence, 336 h, postemergence, scale 0 to 100, 0 is no effect, 100 is complete control, read-out: Pigweed plant response rating): 40% | pest or weed control at 500 g/ha ([13]; Amaranthus retroflexus, pre-emergence, 336 h, visual rating, 0 = no effect, 100 = complete control, read-out: Plant response rating, Pigweed): 50% | plant injury at 125 g/ha [14, 17]: 30% | plant injury at 500 g/ha [14, 18]: 40% | plant injury at 1000 g/ha [15]: 50%
